Measured values published in patent US20240124443A1, “PLASMIN INHIBITOR, PREPARATION METHOD THEREFOR, AND APPLICATION THEREOF” (SCINNOHUB PHARMACEUTICAL CO., LTD, priority 2021, published 2024).
Where a name gives a salt, the structure may show the parent alone. Read-outs that look alike come from different tables or passages of the source.

Test system: degradation of plasma clots
Assay: Plasma clot lysis assay
Assay type: biochemical, human
Protocol: To determine the inhibitory effect of the compounds of the invention on the degradation of plasma clots.
3.1 Collect fresh healthy human blood, mix 1 part of anticoagulant (0.109 M trisodium citrate) with 9 parts of blood, centrifuge at 2000×g for 20 min at room temperature, collect the supernatant (plasma), sub-package and store at −80° C. for later use.
3.2 On the day of experiment, the plasma was thawed in a water bath at 37° C., and all reagents except tPA were pre-warmed at 37° C.
3.3 Add 12.5 μL of 80 mM CaCl2 (HEPES buffer, pH 7.4) to a 96-well plate, and then add 25 μL of different concentrations of test compound diluted with normal saline, add an equal volume of normal saline to the negative control well.
3.4 Mix 50 μL of pre-warmed plasma with 12.5 μL of 4 nM tPA (HEPES buffer, pH 7.4), immediately add to a 96-well plate, measure the absorbance at 405 nm every 2 minutes, continuously for 15 hours.
The time corresponding to the median of the absorption value in the descending section—the time corresponding to the median of the absorption value in the ascending section is the plasma clot degradation time (Clot lysis time). Taking the plasma clot lysis time of the negative control well as a reference, calculate the relative value of the plasma clot lysis time in the wells treated with different concentrations of the compound and the plasma clot lysis time of the negative control well to obtain the inhibition rate:
Inhibition rate%=(1−Clot lysis time of negative control well/Clot lysis time of compound treated well)×100%
Taking the log value of the compound concentration as the X-axis, and the percentage inhibition rate as the Y-axis, and dose-response curves were fitted with the software GraphPad Prism 5 by using log (inhibitor) vs. Response-Variable slope to derive IC50 values of compounds inhibiting the degradation of plasma clots.
Formula: Y=min+(max−min)/(1+10^((LogIC50−X)×Hillslope).

[1] = human plasma, tPA, inhibition of plasma clot degradation in vitro relative to tranexamic acid

SMILES	IC50 ratio (IC50 Examples/IC50 Tranexamic acid) [1]	IC50 ratio (IC50 Examples/IC50 Tranexamic acid)
CCC1(CC)Cc2nc(C(=O)O)ccc2CN1.Cl [Example 45, 7,7-diethyl-5,6,7,8-tetrahydro-1,6-naphthyridine-2-carboxylic acid hydrochloride]	0.57	
COc1ccc(CCC2Cc3nc(C(=O)O)ccc3CN2)cc1.Cl (stereo not drawn) [Example 42]	0.17	
Cl.O=C(O)c1ccc2c(n1)CC1(CCC1)NC2 [Example 49]	0.28	
Cl.O=C(O)c1ccc2c(n1)C(N1CCNCC1)CNC2 (stereo not drawn) [Example 22]	0.67	
Cl.O=C(O)c1ccc2c(n1)CC(CCCc1ccccc1)NC2 (stereo not drawn) [Example 34]	0.11	
Cl.O=C(O)c1ccc2c(n1)CC(C(=O)NCCO)NC2 (stereo not drawn) [Example 29]	2.26	
Cl.O=C(O)c1ccc2c(n1)C(OCCO)CNC2 (stereo not drawn) [Example 18]	0.66	
Cl.O=C(O)c1ccc2c(n1)CC1(CCCC1)NC2 [Example 46]	0.33	
Cl.O=C(O)c1ccc2c(n1)CC(C(=O)O)NC2 (stereo not drawn) [Example 16, 5,6,7,8-tetrahydro-1,6-naphthyridine-2,7-dicarboxylic acid hydrochloride]	0.54	
CC(C)(C)CCC1Cc2nc(C(=O)O)ccc2CN1.Cl (stereo not drawn) [Example 40]	0.18	
CCCC1Cc2nc(C(=O)O)ccc2CN1.Cl (stereo not drawn) [Example 39]	0.17	
Cl.O=C(O)c1ccc2c(n1)C(N1CC[S+]([O-])CC1)CNC2 (stereo not drawn) [Example 21]	0.14	
Cl.O=C(O)c1ccc2c(n1)CC(CCc1ccccc1)NC2 (stereo not drawn) [Example 35]	0.12	
Cl.O=C(O)c1ccc2c(n1)CC(Cc1ccccc1)NC2 (stereo not drawn) [Example 27]	0.67	
CC(C)CCC1Cc2nc(C(=O)O)ccc2CN1.Cl (stereo not drawn) [Example 38]	0.13	
CC(C)C1Cc2nc(C(=O)O)ccc2CN1.Cl (stereo not drawn) [Example 37]	0.18	
Cl.O=C(O)c1ccc2c(n1)C(N1CCOC(Cc3ccccc3)C1)CNC2 (stereo not drawn) [Example 15, 8-(2-benzylmorpholino)-5,6,7,8-tetrahydro-1,6-naphthyridine-2-carboxylic acid hydrochloride]	0.57	
Cl.O=C(O)c1nc2c(cc1F)CNCC2 [Example 17, 3-fluoro-5,6,7,8-tetrahydro-1,6-naphthyridine-2-carboxylic acid hydrochloride]	0.34	
Cl.O=C(O)c1ccc2c(n1)C(N1CCSCC1)CNC2 (stereo not drawn) [Example 20]	0.50	
Cl.O=C(O)c1ccc2c(n1)CC(COCCCO)NC2 (stereo not drawn) [Example 7, 7-((3-hydroxypropoxy)methyl)-5,6,7,8-tetrahydro-1,6-naphthyridine-2-carboxylic acid hydrochloride]	0.25	
Cl.O=C(O)c1ccc2c(n1)CC1(CCOCC1)NC2 [Example 44]	0.23	
Cl.O=C(O)c1ccc2c(n1)CC(CC1CCCCC1)NC2 (stereo not drawn) [Example 41]	0.12	
NC1CNCc2ccc(C(=O)O)nc21 (stereo not drawn) [Example 3, 8-amino-5,6,7,8-tetrahydro-1,6-naphthyridine-2-carboxylic acid dihydrochloride]	2.89	

SMILES	IC50 ratio (IC50 Examples/IC50 Tranexamic acid) [1]	IC50 ratio (IC50 Examples/IC50 Tranexamic acid)
Cl.O=C(O)c1ccc2c(n1)C(N1CCCCC1)CNC2 (stereo not drawn) [Example 19]	5.75	
Cl.O=C(O)c1ccc2c(n1)CC(CCCCO)NC2 (stereo not drawn) [Example 10, 7-(4-hydroxybutyl)-5,6,7,8-tetrahydro-1,6-naphthyridine-2-carboxylic acid hydrochloride]	0.18	
Cl.O=C(O)c1ccc2c(n1)C(N1CCOCC1)CNC2 (stereo not drawn) [Example 5, 8-morpholino-5,6,7,8-tetrahydro-1,6-naphthyridine-2-carboxylic acid hydrochloride]	0.29	
Cl.O=C(O)c1ccc2c(n1)CC1(CCCCC1)NC2 [Example 47]	0.40	
Cl.O=C(O)c1ccc2c(n1)CC(C(O)CCCO)NC2 (stereo not drawn) [Example 13, 7-(1,4-dihydroxybutyl)-5,6,7,8-tetrahydro-1,6-naphthyridine-2-carboxylic acid hydrochloride]		1.63
Cl.O=C(O)c1ccc2c(n1)CC(C(O)c1ccccc1)NC2 (stereo not drawn) [Example 12, 7-(hydroxy(phenyl)methyl)-5,6,7,8-tetrahydro-1,6-naphthyridine-2-carboxylic acid hydrochloride]	0.88	
Cl.O=C(O)c1ccc2c(n1)CC(CCCCCO)NC2 (stereo not drawn) [Example 28]	0.27	
Cl.O=C(O)c1ccc2c(n1)C(O)CNC2 (stereo not drawn) [Example 2, 8-hydroxy-5,6,7,8-tetrahydro-1,6-naphthyridine-2-carboxylic acid hydrochloride]	1.24	
Cl.O=C(O)c1ccc2c(n1)CC(CCC1CCCCC1)NC2 (stereo not drawn) [Example 43]	0.11	
Cl.O=C(O)c1ccc2c(n1)CC(C(=O)OCCCO)NC2 (stereo not drawn) [Example 30]	0.32	
CC(C)CC1Cc2nc(C(=O)O)ccc2CN1.Cl (stereo not drawn) [Example 26]	0.22	
Cl.O=C(O)c1ccc2c(n1)C(N1CCS(=O)(=O)CC1)CNC2 (stereo not drawn) [Example 6, 8-(1,1-dioxido-thiomorpholino)-5,6,7,8-tetrahydro-1,6-naphthyridine-2-carboxylic acid hydrochloride]	0.31	
CC(C)CC1(CC(C)C)Cc2nc(C(=O)O)ccc2CN1.Cl [Example 48]	0.42	
Cl.O=C(O)c1ccc2c(n1)CC(C1(O)CC1)NC2 (stereo not drawn) [Example 9, 7-(1-hydroxycyclopropyl)-5,6,7,8-tetrahydro-1,6-naphthyridine-2-carboxylic acid hydrochloride]	0.44	
Cl.O=C(O)c1ccc2c(n1)CC(CO)(CO)NC2 [Example 25]	6.36	
CC(C)(C)CC1Cc2nc(C(=O)O)ccc2CN1.Cl (stereo not drawn) [Example 36]	0.13	
Cl.O=C(O)c1ccc2c(n1)CC(CO)NC2 (stereo not drawn) [Example 23]	0.17	
CC(C)(O)C1Cc2nc(C(=O)O)ccc2CN1.Cl (stereo not drawn) [Example 24]	1.67	
O=C(O)c1ccc2c(n1)CC(CNCCO)NC2 (stereo not drawn) [Example 31]	1.87	
CC(C)C(O)C1Cc2nc(C(=O)O)ccc2CN1.Cl (stereo not drawn) [Example 33]	0.53	
O=C(O)c1ccc2c(n1)CC(CNCCCO)NC2 (stereo not drawn) [Example 11, 7-(((3-hydroxypropyl)amino)methyl)-5,6,7,8-tetrahydro-1,6-naphthyridine-2-carboxylic acid dihydrochloride]	2.58	
Cl.O=C(O)c1ccc2c(n1)CC(COCCO)NC2 (stereo not drawn) [Example 32]	0.61	
